# According to ChEMBL document CHEMBL3352746, “Synthesis and anticancer activity of quinopimaric and maleopimaric acids’ derivatives” (Bioorg Med Chem, 2014):
# Experiments:
# A549 = assay: Growth inhibition of human A549/ATCC cells; assay type: functional
# Mus musculus [1] = assay: Toxicity in mouse P388 cells implanted mouse assessed as mean ascites volume at 60 mg/kg, ip dosed daily for 5 days administered 24 hrs after tumor implantation; assay type: organism-based; design: dose 60 mg/kg, route intraperitoneal; conditions: in vivo
# [2] = Growth inhibition of human UACC257 cells; assay type: functional
# [3] = Antitumor activity against mouse AKATOL cells implanted in mouse assessed as tumor growth inhibition at 40 mg/kg, ip dosed daily for 5 days measured 16 days after treatment termination; assay type: functional; conditions: route intraperitoneal, read-out: TGI
# SK-MEL-5 = assay: Growth inhibition of human SK-MEL-5 cells; assay type: functional
# Mus musculus [4] = assay: Toxicity in mouse Ehrlich carcinoma cells implanted mouse assessed as mean spleen weight at 50 mg/kg, ip dosed daily for 5 days administered 48 hrs after tumor implantation; assay type: organism-based; design: dose 50 mg/kg, route intraperitoneal; conditions: in vivo
# HOP-62 = assay: Growth inhibition of human HOP62 cells; assay type: functional
# MDA-MB-435 = assay: Growth inhibition of human MDA-MB-435 cells; assay type: functional
# [5] = Antitumor activity against mouse AKATOL cells implanted in mouse assessed as tumor growth inhibition at 40 mg/kg, ip dosed daily for 5 days measured 19 days after treatment termination; assay type: functional; conditions: route intraperitoneal, read-out: TGI
# [6] = Growth inhibition of human UACC62 cells; assay type: functional
# [7] = Growth inhibition of human PC3 cells; assay type: functional
# Mus musculus [8] = assay: Toxicity in mouse LLC cells implanted mouse assessed as mouse mortality at 40 mg/kg, ip dosed daily for 5 days; assay type: organism-based; design: dose 40 mg/kg, route intraperitoneal; conditions: in vivo, 120 h
# [9] = Growth inhibition of human UO31 cells; assay type: functional
# [10] = system: Lewis lung carcinoma cell line; assay: Antitumor activity against mouse LLC cells implanted in mouse assessed as tumor growth inhibition at 40 mg/kg, ip dosed daily for 5 days measured 16 days after treatment termination; assay type: functional; conditions: route intraperitoneal, read-out: TGI
# NCI-H522 = assay: Growth inhibition of human NCI-H522 cells; assay type: functional
# [11] = Antitumor activity against mouse AKATOL cells implanted in mouse assessed as tumor growth inhibition at 40 mg/kg, ip dosed daily for 5 days measured 5 days after treatment termination; assay type: functional; conditions: 120 h, route intraperitoneal, read-out: TGI
# [12] = Growth inhibition of human COLO205 cells; assay type: functional
# Mus musculus [13] = assay: Toxicity in mouse P388 cells implanted mouse assessed as mouse mortality at 20 mg/kg, ip dosed daily for 5 days administered 24 hrs after tumor implantation; assay type: organism-based; design: dose 20 mg/kg, route intraperitoneal; conditions: in vivo
# Mus musculus [14] = assay: Toxicity in mouse P388 cells implanted mouse assessed as mean spleen weight at 20 mg/kg, ip dosed daily for 5 days administered 24 hrs after tumor implantation; assay type: organism-based; design: dose 20 mg/kg, route intraperitoneal; conditions: in vivo
# [15] = system: Lewis lung carcinoma cell line; assay: Antitumor activity against mouse LLC cells implanted in mouse assessed as tumor growth inhibition at 40 mg/kg, ip dosed daily for 5 days measured 8 to 9 days after treatment termination; assay type: functional; conditions: route intraperitoneal, read-out: TGI
# A498 = assay: Growth inhibition of human A498 cells; assay type: functional
# [16] = Antitumor activity against mouse CA-755 cells implanted in mouse assessed as increase in life span at 40 mg/kg, ip dosed daily for 5 days; assay type: functional; conditions: CA-755, ip, 120 h, route intraperitoneal
# CAKI-1 = assay: Growth inhibition of human CAKI-1 cells; assay type: functional
# [17] = Growth inhibition of human RXF393 cells; assay type: functional
# MDA-MB-468 = assay: Growth inhibition of human MDA-MB-468 cells; assay type: functional
# P388 [18] = assay: Antitumor activity against mouse P388 cells implanted in mouse assessed as increase in life span at 20 mg/kg, ip dosed daily for 5 days administered 24 hrs after tumor implantation; assay type: functional; conditions: route intraperitoneal
# P388 [19] = assay: Antitumor activity against mouse P388 cells implanted in mouse assessed as increase in life span at 40 mg/kg, ip dosed daily for 5 days administered 24 hrs after tumor implantation; assay type: functional; conditions: route intraperitoneal
# P388 [20] = assay: Antitumor activity against mouse P388 cells implanted in mouse assessed as increase in life span at 60 mg/kg, ip dosed daily for 5 days administered 24 hrs after tumor implantation; assay type: functional; conditions: route intraperitoneal
# [21] = Growth inhibition of human MOLT4 cells; assay type: functional
# T47D = assay: Growth inhibition of human T47D cells; assay type: functional
# [22] = Antitumor activity against mouse Ehrlich carcinoma cells implanted in mouse assessed as increase in life span at 50 mg/kg, ip dosed daily for 5 days administered 48 hrs after tumor implantation; assay type: functional; conditions: route intraperitoneal
# SW-620 = assay: Growth inhibition of human SW620 cells; assay type: functional
# NCI-H23 = assay: Growth inhibition of human NCI-H23 cells; assay type: functional
# Mus musculus [23] = assay: Toxicity in mouse P388 cells implanted mouse assessed as mean ascites volume at 40 mg/kg, ip dosed daily for 5 days administered 24 hrs after tumor implantation; assay type: organism-based; design: dose 40 mg/kg, route intraperitoneal; conditions: in vivo
# Mus musculus [24] = assay: Toxicity in mouse P388 cells implanted mouse assessed as mean ascites volume at 10 mg/kg, ip dosed daily for 5 days administered 24 hrs after tumor implantation; assay type: organism-based; design: dose 10 mg/kg, route intraperitoneal; conditions: in vivo
# [25] = Growth inhibition of human RPMI8226 cells; assay type: functional, RPMI-8226
# Mus musculus [26] = assay: Toxicity in mouse Ehrlich carcinoma cells implanted mouse assessed as mean ascites volume at 50 mg/kg, ip dosed daily for 5 days administered 48 hrs after tumor implantation; assay type: organism-based; design: dose 50 mg/kg, route intraperitoneal; conditions: in vivo
# [27] = Growth inhibition of human OVCAR5 cells; assay type: functional
# [28] = Growth inhibition of human SF295 cells; assay type: functional
# SK-OV-3 = assay: Growth inhibition of human SKOV3 cells; assay type: functional
# Malme-3M = assay: Growth inhibition of human MALME-3M cells; assay type: functional
# [29] = read-out: pLC50 (the source's name) (converted)
structure (smiles),measurement,setting,value
COC(=O)[C@]1(C)CCC[C@]2(C)[C@H]3C[C@H]4C(C(C)C)=C[C@]3(CC[C@H]21)[C@@H]1/C(=N/O)CC/C(=N\O)[C@@H]14,GI50,A549; A549,3.09 µM
same,CC50,"A549; A549, read-out: pLC50 (converted)",> 100 µM
same,TGI,"A549; A549, read-out: pTGI (converted)",10.5 µM
same,Activity,Mus musculus [1],0.6 mL
same,GI50,[2]; UACC-257,3.63 µM
same,CC50,"[2]; UACC-257, read-out: pLC50 (the source's name) (converted)",38.9 µM
same,TGI,"[2]; UACC-257, read-out: pTGI (converted)",12 µM
same,inhibition in vivo at 40 mg/kg,[3],47%
same,GI50,SK-MEL-5,3.09 µM
same,CC50,SK-MEL-5; [29],36.3 µM
same,TGI,SK-MEL-5; read-out: pTGI (converted),11.5 µM
same,Activity,Mus musculus [4],104 mg
same,GI50,HOP-62,15.1 µM
same,CC50,HOP-62; [29],95.5 µM
same,TGI,HOP-62; read-out: pTGI (converted),38 µM
same,GI50,MDA-MB-435,4.9 µM
same,CC50,MDA-MB-435; [29],95.5 µM
same,TGI,MDA-MB-435; read-out: pTGI (converted),23.4 µM
same,inhibition in vivo at 40 mg/kg,[5],44%
same,GI50,[6]; UACC-62,4.68 µM
same,CC50,"[6]; UACC-62, read-out: pLC50 (the source's name) (converted)",67.6 µM
same,TGI,"[6]; UACC-62, read-out: pTGI (converted)",22.4 µM
same,GI50,[7]; PC-3,4.37 µM
same,CC50,"[7]; PC-3, read-out: pLC50 (the source's name) (converted)",45.7 µM
same,TGI,"[7]; PC-3, read-out: pTGI (converted)",15.1 µM
same,Activity,Mus musculus [8],Non-toxic
same,GI50,[9]; UO-31,4.9 µM
same,CC50,"[9]; UO-31, read-out: pLC50 (the source's name) (converted)",75.9 µM
same,TGI,"[9]; UO-31, read-out: pTGI (converted)",20.9 µM
same,inhibition in vivo at 40 mg/kg,[10],34%
same,GI50,NCI-H522,3.8 µM
same,CC50,NCI-H522; [29],93.3 µM
same,TGI,NCI-H522; read-out: pTGI (converted),17.8 µM
same,inhibition in vivo at 40 mg/kg,[11],60%
same,GI50,[12]; COLO 205,2.19 µM
same,CC50,"[12]; COLO 205, read-out: pLC50 (the source's name) (converted)",8.51 µM
same,TGI,"[12]; COLO 205, read-out: pTGI (converted)",4.37 µM
same,Activity,Mus musculus [13],Non-toxic
same,Activity,Mus musculus [14],101 mg
same,inhibition in vivo at 40 mg/kg,[15],20%
same,GI50,A498,2.24 µM
same,CC50,A498; [29],25.1 µM
same,TGI,A498; read-out: pTGI (converted),6.76 µM
same,ILS at 40 mg/kg,[16],11%
same,GI50,CAKI-1; CAKI-1,7.08 µM
same,CC50,"CAKI-1; CAKI-1, read-out: pLC50 (converted)",> 100 µM
same,TGI,"CAKI-1; CAKI-1, read-out: pTGI (converted)",32.4 µM
same,GI50,[17]; RXF 393,2.14 µM
same,CC50,"[17]; RXF 393, read-out: pLC50 (the source's name) (converted)",8.91 µM
same,TGI,"[17]; RXF 393, read-out: pTGI (converted)",4.37 µM
same,GI50,MDA-MB-468,4.68 µM
same,CC50,MDA-MB-468; [29],64.6 µM
same,TGI,MDA-MB-468; read-out: pTGI (converted),20 µM
same,ILS at 20 mg/kg,P388 [18],-4%
same,ILS at 40 mg/kg,P388 [19],-7%
same,ILS at 60 mg/kg,P388 [20],-10%
same,GI50,[21]; MOLT-4,1.86 µM
same,CC50,"[21]; MOLT-4, read-out: pLC50 (the source's name) (converted)",33.9 µM
same,TGI,"[21]; MOLT-4, read-out: pTGI (converted)",6.31 µM
same,GI50,T47D,1.91 µM
same,CC50,T47D; [29],24.5 µM
same,TGI,T47D; read-out: pTGI (converted),4.68 µM
same,ILS at 50 mg/kg,[22],-3%
same,GI50,SW-620,3.47 µM
same,CC50,SW-620; [29],49 µM
same,TGI,SW-620; read-out: pTGI (converted),14.5 µM
same,GI50,NCI-H23,3.72 µM
same,CC50,NCI-H23; [29],93.3 µM
same,TGI,NCI-H23; read-out: pTGI (converted),15.8 µM
same,Activity,Mus musculus [23],1.2 mL
same,Activity,Mus musculus [24],1.3 mL
same,GI50,[25]; RPMI-8226,2.09 µM
same,CC50,"[25]; RPMI-8226, read-out: pLC50 (converted)",> 100 µM
same,TGI,"[25]; RPMI-8226, read-out: pTGI (converted)",4.79 µM
same,Activity,Mus musculus [26],0.63 mL
same,GI50,[27]; OVCAR-5,5.62 µM
same,CC50,"[27]; OVCAR-5, read-out: pLC50 (the source's name) (converted)",63.1 µM
same,TGI,"[27]; OVCAR-5, read-out: pTGI (converted)",20 µM
same,GI50,[28]; SF-295,5.89 µM
same,CC50,"[28]; SF-295, read-out: pLC50 (the source's name) (converted)",64.6 µM
same,TGI,"[28]; SF-295, read-out: pTGI (converted)",21.4 µM
same,GI50,SK-OV-3,10.2 µM
same,CC50,SK-OV-3; [29],47.9 µM
same,TGI,SK-OV-3; read-out: pTGI (converted),22.4 µM
same,GI50,Malme-3M,5.89 µM
same,CC50,Malme-3M; [29],50.1 µM
same,TGI,Malme-3M; read-out: pTGI (converted),20 µM
